{"source": "patent US20190328712A1", "about": "(Treeway TW001 B.V., priority 2017, published 2019)", "key": {"[1]": {"assay": "Single 60 mg dose of Radicut edaravone solution, oral and i.v. infusion, plasma pharmacokinetics in dogs", "type": "in vivo", "settings": "male, beagle, dog; for concentration at […]: 0.25 hrs"}, "[2]": {"assay": "Single 60 mg dose of Radicut edaravone solution, oral and i.v. infusion, plasma pharmacokinetics in dogs", "type": "in vivo", "settings": "male, beagle, dog, iv, i.v. infusion 60 mg (15 min)", "description": "The study was conducted in a group of 4 male beagle dogs. […] After a wash-out period of 2 days, the animals received an intravenous infusion of two Radicut® ampoules (15 minutes infusion time)."}, "[3]": {"assay": "Single dose, randomized, two-period cross-over study, oral solution 140 mg vs i.v. 60 mg, plasma pharmacokinetics", "type": "in vivo", "settings": "human", "description": "A single dose, randomized, two-period, cross-over study was conducted in 18 healthy male and female human subjects."}, "[4]": {"assay": "Rate of dissolution of edaravone in water", "type": "physicochemical", "settings": "in the presence of an alkalizing agent"}, "[5]": {"settings": "rats, oral, 'raw' edaravone suspended with 0.5% CMC-Na, vs 100% intravenous; cited from earlier work"}, "[6]": {"settings": "ALS patients, Week 24; cited from earlier work"}, "[7]": {"settings": "iv, i.v. infusion 60 mg (15 min)"}, "[8]": {"settings": "both sexes, plasma, iv, i.v. infusion 60 mg (60 minutes)"}, "[9]": {"settings": "both sexes, plasma, iv, i.v. infusion (60 mg, 60 minutes)"}, "[10]": {"settings": "both sexes, plasma, oral administration 140 mg"}, "[11]": {"settings": "both sexes, plasma, oral administration (140 mg)"}}}
{"smiles": "CC1=NN(c2ccccc2)C(=O)C1", "note": "[edaravone, 3-methyl-1-phenyl-2-pyrazolin-5-one]", "values": [{"measurement": "bioavailability", "setting": "[1]; oral 60 mg compared to iv infusion, read-out: systemic bioavailability (Fabs)", "value": 34, "unit": "%"}, {"measurement": "AUC(0-inf)", "setting": "[1]; oral administration 60 mg", "value": 553, "unit": "ng·h/mL"}, {"measurement": "AUC(0-t)", "setting": "[1]; oral administration 60 mg", "value": 542, "unit": "ng·h/mL"}, {"measurement": "Cmax", "setting": "[1]; oral administration 60 mg", "value": 2310, "unit": "ng/mL"}, {"measurement": "concentration at 0.083 h", "setting": "[1]; oral administration 60 mg, 0.083 hrs", "value": 2310, "unit": "ng/mL"}, {"measurement": "concentration at 0.17 h", "setting": "[1]; oral administration 60 mg, 0.17 hrs", "value": 994, "unit": "ng/mL"}, {"measurement": "concentration at […]", "setting": "[1]; oral administration 60 mg", "value": 491, "unit": "ng/mL"}, {"measurement": "concentration at 0.5 h", "setting": "[1]; oral administration 60 mg, 0.5 hrs", "value": 185, "unit": "ng/mL"}, {"measurement": "concentration at 1 h", "setting": "[1]; oral administration 60 mg, 1 hrs", "value": 84, "unit": "ng/mL"}, {"measurement": "concentration at 1.5 h", "setting": "[1]; oral administration 60 mg, 1.5 hrs", "value": 51, "unit": "ng/mL"}, {"measurement": "concentration at 2 h", "setting": "[1]; oral administration 60 mg, 2 hrs", "value": 36, "unit": "ng/mL"}, {"measurement": "concentration at 4 h", "setting": "[1]; oral administration 60 mg, 4 hrs", "value": 11, "unit": "ng/mL"}, {"measurement": "concentration at 6 h", "setting": "[1]; oral administration 60 mg, 6 hrs", "value": 5, "unit": "ng/mL"}, {"measurement": "Tmax", "setting": "[1]; po, 60 mg, oral administration 60 mg", "value": "~5", "unit": "min"}, {"measurement": "AUC(0-inf)", "setting": "[1]; [7]", "value": 1630, "unit": "ng·h/mL"}, {"measurement": "AUC(0-t)", "setting": "[1]; [7]", "value": 1600, "unit": "ng·h/mL"}, {"measurement": "Cmax", "setting": "[1]; [7]", "value": 4380, "unit": "ng/mL"}, {"measurement": "concentration at […]", "setting": "[1]; [7]", "value": 4380, "unit": "ng/mL"}, {"measurement": "concentration at 10 h", "setting": "[1]; iv, i.v. infusion 60 mg (15 min), 10 hrs", "value": 5, "unit": "ng/mL"}, {"measurement": "Tmax", "setting": "[2]; 60 mg", "value": 15, "unit": "min"}, {"measurement": "concentration at 0.083 h", "setting": "[2]; 0.083 hrs", "value": 3060, "unit": "ng/mL"}, {"measurement": "concentration at 0.5 h", "setting": "[2]; 0.5 hrs", "value": 648, "unit": "ng/mL"}, {"measurement": "concentration at 1 h", "setting": "[2]; 1 hrs", "value": 140, "unit": "ng/mL"}, {"measurement": "concentration at 2 h", "setting": "[2]; 2 hrs", "value": 49, "unit": "ng/mL"}, {"measurement": "concentration at 4 h", "setting": "[2]; 4 hrs", "value": 17, "unit": "ng/mL"}, {"measurement": "concentration at 8 h", "setting": "[2]; 8 hrs", "value": 6, "unit": "ng/mL"}, {"measurement": "bioavailability", "setting": "[3]; both sexes, plasma, oral, 140 mg, oral aqueous solution 140 mg compared to i.v. infusion 60 mg, read-out: systemic / absolute bioavailability (Fabs)", "value": "~80", "unit": "%"}, {"measurement": "AUC(0-inf)", "setting": "[3]; [8]", "value": 1300, "unit": "ng·h/mL"}, {"measurement": "AUC(0-t)", "setting": "[3]; [8]", "value": 1290, "unit": "ng·h/mL"}, {"measurement": "Cmax", "setting": "[3]; [8]", "value": 1030, "unit": "ng/mL"}, {"measurement": "Tmax", "setting": "[3]; [8]", "value": 60, "unit": "min"}, {"measurement": "concentration at 0.17 h", "setting": "[3]; [9]", "value": 380, "unit": "ng/mL"}, {"measurement": "concentration at 0.5 h", "setting": "[3]; [9]", "value": 713, "unit": "ng/mL"}, {"measurement": "concentration at 1 h", "setting": "[3]; [9]", "value": 990, "unit": "ng/mL"}, {"measurement": "concentration at 1.5 h", "setting": "[3]; [9]", "value": 321, "unit": "ng/mL"}, {"measurement": "concentration at 4 h", "setting": "[3]; [9]", "value": 42, "unit": "ng/mL"}, {"measurement": "concentration at 6 h", "setting": "[3]; [9]", "value": 14, "unit": "ng/mL"}, {"measurement": "concentration at 8 h", "setting": "[3]; [9]", "value": 8, "unit": "ng/mL"}, {"measurement": "concentration at 10 h", "setting": "[3]; [9]", "value": 5, "unit": "ng/mL"}, {"measurement": "AUC(0-inf)", "setting": "[3]; [10]", "value": 2410, "unit": "ng·h/mL"}, {"measurement": "AUC(0-t)", "setting": "[3]; [10]", "value": 2390, "unit": "ng·h/mL"}, {"measurement": "Cmax", "setting": "[3]; [10]", "value": 2940, "unit": "ng/mL"}, {"measurement": "concentration at 0.083 h", "setting": "[3]; both sexes, plasma, oral administration (140 mg), 0.083 hrs", "value": 1200, "unit": "ng/mL"}, {"measurement": "concentration at 0.17 h", "setting": "[3]; [11]", "value": 2360, "unit": "ng/mL"}, {"measurement": "concentration at […]", "setting": "[3]; both sexes, plasma, oral administration (140 mg), 0.25 hrs", "value": 2630, "unit": "ng/mL"}, {"measurement": "concentration at 0.5 h", "setting": "[3]; [11]", "value": 1810, "unit": "ng/mL"}, {"measurement": "concentration at 1 h", "setting": "[3]; [11]", "value": 689, "unit": "ng/mL"}, {"measurement": "concentration at 1.5 h", "setting": "[3]; [11]", "value": 354, "unit": "ng/mL"}, {"measurement": "concentration at 2 h", "setting": "[3]; both sexes, plasma, oral administration (140 mg), 2 hrs", "value": 203, "unit": "ng/mL"}, {"measurement": "concentration at 4 h", "setting": "[3]; [11]", "value": 68, "unit": "ng/mL"}, {"measurement": "concentration at 6 h", "setting": "[3]; [11]", "value": 24, "unit": "ng/mL"}, {"measurement": "concentration at 8 h", "setting": "[3]; [11]", "value": 13, "unit": "ng/mL"}, {"measurement": "concentration at 10 h", "setting": "[3]; [11]", "value": 9, "unit": "ng/mL"}, {"measurement": "time to peak maximum concentration after administration", "setting": "[3]; oral administration 140 mg", "value": "about 15 min"}, {"measurement": "rate at which edaravone dissolves in water", "setting": "[4]", "value": "increased substantially"}, {"measurement": "absolute bioavailability (Fabs)", "setting": "[5]", "value": 5.23, "unit": "%"}, {"measurement": "decline on a clinical assessment of daily functioning compared to placebo", "setting": "[6]", "value": "declined less"}]}
